Reference: publication PMC6068142, “Biochemical and structural characterization of a mannose binding jacalin-related lectin with two-sugar binding sites from pineapple (Ananas comosus) stem” (Scientific Reports, 2018)
In brackets after ≈: the same amount, converted by molar mass. Like-named read-outs stand apart in the source and are kept apart here.

T1: AcmJRL (Ananas comosus, UniProt Q53J09)
T1 construct: native, purified from pineapple stem (D-mannose-Agarose, Superdex 75); initiator Met absent; N-terminus SGLVGLG; residues 2-145; not glycosylated; homodimer in solution, tetramer in crystal
T1 sequence (Q53J09 2-145): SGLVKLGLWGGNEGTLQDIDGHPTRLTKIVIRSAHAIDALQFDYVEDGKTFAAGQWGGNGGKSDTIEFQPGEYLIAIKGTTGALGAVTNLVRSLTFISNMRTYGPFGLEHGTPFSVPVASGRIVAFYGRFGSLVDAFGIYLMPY

B1: Ananas comosus mannose jacalin-related lectin (AcmJRL) (natural protein, UniProt Q53J09 2-145, looked up)
chain: T1 sequence (Q53J09 2-145)
notes: jacalin-like lectin from Ananas comosus (pineapple) stem, SwissProt entry Q53J09_ANACO; each monomer in the crystal runs from Ser2 to Tyr145; not glycosylated; Homodimer in solution by size-exclusion chromatography (0.15 mM); tetramer in the crystal (1.1 mM); Purification methods are in the Supplementary Materials and Methods; also called A. comosus lectin; jacalin-like lectin from A. comosus

How the values were obtained:
[1] = molecular target: T1, AcmJRL; set-up: inhibition of lectin-induced rat erythrocyte hemagglutination, two-fold serial dilution, lowest saccharide concentration visibly decreasing agglutination; conditions: minimum concentration inhibiting hemagglutination of rat erythrocytes; inhibitor
Description: Hemagglutinating activity was performed in microtiter plates with V-bottom wells, using the two-fold serial dilution method, starting with a concentration of 1 mg/mL (65 µM) lectin in phosphate-buffered saline containing 150 mM NaCl. Rabbit, sheep and rat erythrocytes were washed six times with 150 mM NaCl and resuspended at a final concentration of 3% (v/v) in 150 mM NaCl. Twenty-five µL of lectin solution were mixed with 25 µL of 3% erythrocytes, serially diluted and incubated at room temperature and 37 °C for 1 h. Hemagglutination activity was also assayed in the presence of 50 mM of the divalent ions Mg^2+, Mn^2+ Zn^2+ and Ca^2+. In this case, Tris-HCl 50 mM buffer at pH 7.2 containing 150 mM NaCl was used to avoid precipitation of phosphate compounds. The hemagglutination activity was given as a titer (the reciprocal of the highest two-fold dilution) or expressed as the minimum protein concentration (μg/mL), which produced visible hemagglutination and denoted as Hemagglutinating Unit (HU). Specific activity was defined as the HU per milligram of protein. The carbohydrate-binding specificity was determined by the inhibition of hemagglutination of rat erythrocytes, that were only the hemagglutinated ones, with starting concentrations of 100 mM for D-mannose, methyl-α-D-mannopyranoside and methyl-α-D-glucopyranoside, 50 mM for D-glucose and N-acetyl-D-glucosamine, 15 mM for Manα1,3Man and Manα1,3(Manα1,6)Man and 10 mM for Manα1,3Manα1,6(Manα1,6)Manα1,3. The different saccharides were serially diluted from the starting concentrations. After addition of 25 µL of A. comosus lectin (187.5 µg/mL) to all microplate wells, 25 µL of each saccharide were mixed separately in the first microtiter plate well followed by two-fold serial dilution and pre-incubated at room temperature for 1 h. Then 25 µL of 3% […] erythrocyte suspension were added to each well and the hemagglutination activity was evaluated after a further 1 h incubation period at room temperature and 37 °C. […] These are, e.g., the lectins from Phlebodium aureum rhizomes and Centrolobium microchaete seeds and heltuba[19],[47],[52].

[2] = molecular target: T2, AcmJRL (Ananas comosus, UniProt Q53J09); test: isothermal titration calorimetry; type: binding; conditions: for Ka (M^-1): Tris-HCl 50 mM, 150 mM NaCl, pH 7.4, 25 °C, fit with fixed n = 2 equivalent sites
T2 construct: native, purified from pineapple stem (D-mannose-Agarose, Superdex 75); initiator Met absent; N-terminus SGLVGLG; residues 2-145; not glycosylated; homodimer in solution, tetramer in crystal
From the text: isothermal titration calorimetry on AcmJRL

[3] = molecular target: T2, AcmJRL; test: inhibition of rat erythrocyte hemagglutination; type: cell-based; conditions: AcmJRL 62.5 µg/mL; two-fold serial dilution of sugar
[4] = molecular target: the molecule itself; test: crystal structure; hanging drop vapor diffusion at 20 °C, protein at 17 mg/mL (1.1 mM); apo form (1.8 Å) and crystals soaked with D-mannose (2.75 Å) or methyl-α-D-mannopyranoside (1.9 Å)
[5] = molecular target: the molecule itself; test: SEC; FPLC gel filtration on Superdex 75 of affinity-purified AcmJRL; 0.15 mM protein; estimated native mass ~30 kDa

Molecule | MIC [1] [µM] | Ka (M^-1) [2] | also measured
CC(=O)N[C@H]1C(O)O[C@H](CO)[C@@H](O)[C@@H]1O (stereo partly shown) [GlcNAc] | 3120 (≈ 690 µg/mL) | 88 ± 1 | –
CO[C@H]1O[C@H](CO)[C@@H](O)[C@H](O)[C@@H]1O [methyl-α-D-mannopyranoside] | – | – | MIC [3]: 1560 µM (≈ 303 µg/mL)
OC[C@H]1OC(O)[C@H](O)[C@@H](O)[C@@H]1O (stereo partly drawn) [D-Glucose] | 3120 (≈ 562 µg/mL) | 83 ± 3 | –
OC[C@H]1O[C@H](OC[C@H]2OC(O)[C@@H](O)[C@@H](O[C@H]3O[C@H](CO)[C@@H](O)[C@H](O)[C@@H]3O)[C@@H]2O)[C@@H](O)[C@@H](O)[C@@H]1O (stereo partly shown) [Mannotriose] | 470 (≈ 237 µg/mL) | 734 ± 117 | –
OC[C@H]1O[C@H](O[C@H]2[C@H](O)[C@@H](CO)OC(O)[C@H]2O)[C@@H](O)[C@@H](O)[C@@H]1O (stereo partly shown) [Manα1,3Man] | 940 (≈ 322 µg/mL) | 421 ± 52 | –
OC[C@H]1O[C@H](OC[C@H]2O[C@H](OC[C@H]3OC(O)[C@@H](O)[C@@H](O[C@H]4O[C@H](CO)[C@@H](O)[C@H](O)[C@@H]4O)[C@@H]3O)[C@@H](O)[C@@H](O[C@H]3O[C@H](CO)[C@@H](O)[C@H](O)[C@@H]3O)[C@@H]2O)[C@@H](O)[C@@H](O)[C@@H]1O (stereo partly shown) [Mannopentaose] | 320 (≈ 265 µg/mL) | 1694 ± 679 | –
CO[C@H]1O[C@H](CO)[C@@H](O)[C@H](O)[C@H]1O [methyl-α-D-glucopyranoside] | – | – | MIC [3]: 1560 µM (≈ 303 µg/mL)
OC[C@H]1OC(O)[C@@H](O)[C@@H](O)[C@@H]1O (stereo partly drawn) [D-Mannose] | 6250 (≈ 1130 µg/mL) | – | Kd ([2]; read-out: Ka (M^-1) (converted)): 5.62 mM
B1 | – | – | stoichiometry N [4]: 4; stoichiometry N [5]: 2
